“Also recorded” adds a separate entry of the source. PEG = not defined here
Experiments:
[1] = solubility in aqueous conjugation buffers; assay type: physicochemical
Procedure: Co-solvent mediated conjugation of vehicle to CGRP peptide antagonists. […] In an attempt to better solubilize these less soluble peptides during the conjugation reaction, and thereby improve conjugate yields, a variety of alcohol co-solvents were tested in the conjugation reaction.

[2] = rat plasma (10% rat plasma in the legend of FIG. 2); conditions: room temperature, up to 1 hour
CGRP1 receptor [3] = molecular target: T1, CGRP1 receptor (Rattus norvegicus, UniProt Q63118+Q9JJ74); assay: laser Doppler blood flowmetry assay (hαCGRP-induced skin blood flow); assay type: in vivo; conditions: i.v., pre-treatment 5 minutes
T1 construct: from tissue; host or cells: living anaesthetised rat, abdominal skin
Procedure: Methods. An automated laser Doppler blood flowmetry device is used (MoorLDI®; Moor Instrument, Devon, UK). The device was turned on prior to the start of experiments and allowed to warm up for 20 minutes. Blood flow data (in FLUX) were read from software records (see below).
For each rat, the experimental procedure was performed within a single day and was each rat was sacrificed on the same day immediately after the experiment was over. On an experiment day, each rat was weighed and administered 1 ml/kg (intramuscular injection in right leg) of an anesthetic cocktail consisting of Ketamine, Xylazine and PBS (5:3:2). […] A small dot was placed near the center of the abdomen using a marker. The animal was then ready for the experiment.
Approximately 20 min after the injection of the anesthetic cocktail, baseline blood flow readings were collected for each animal. Each rat was placed under the laser Doppler scanning device, matching the laser with the marker dot on the abdomen. Using the device's software package, the device was activated and the surface of the abdomen was scanned for 1 min with the laser. The scan area was 4 cm×4 cm. […]
In some cases, plasma IC50 values were calculated by performing least squares linear regression on log plasma concentration values (nM) vs. % change in blood flow values calculated for individual rats.

CGRP1 receptor [4] = molecular target: T2, CGRP1 receptor (Homo sapiens, UniProt O60894+Q16602); assay: in vitro CGRP1 receptor mediated cAMP assay in SK-N-MC cells; assay type: cell-based; conditions: cAMP assay
T2 construct: SK-N-MC cells express CRLR and RAMP1, which form CGRP1 receptor; endogenous in cells; host or cells: SK-N-MC human neuroblastoma cells
Summary of the method: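 Human SK-N-MC neuroblastoma cells, which endogenously express CRLR/RAMP1, were plated two days before assay and preincubated in plasma-free medium for 15 minutes at room temperature. Cells were then lysed for 30 minutes at 37° C, and cAMP in the lysates was quantified by competitive cAMP-AP chemiluminescent ELISA.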

[5] = mouse
Procedure: (§1) Peptide samples at 2 mg/ml in PBS were spiked with 5% mouse plasma and analyzed by sandwich ELISA (as described in Example 3 herein above) over 48 hours at room temperature. Peptide integrity was determined by sandwich ELISA requiring intact peptide termini.

100% human plasma = conditions: room temperature, up to 4 hour
[6] = monkey plasma during 30 minutes of intravenous infusion; conditions: Cynomolgus monkeys (Macaca fascicularis), up to 20 min during the infusion
[7] = 100% Cynomolgus monkey plasma; conditions: room temperature, up to 4 hour
[8] = in vitro stability in 5% mouse plasma, sandwich ELISA
Procedure: as §1

[9] = in vitro stability in 10% human plasma, LC-MS/MS; assay type: in vitro ADME; conditions: room temperature, 100 ng/ml
Procedure: Consequently, the stability of select, non-PEGylated analogs was evaluated in vitro in the presence of 10% rat or human plasma. Briefly, samples of each peptide were diluted to 100 ng/ml into PBS containing 10% of rat or human plasma. Each sample was then incubated at room temperature and analyzed by LC-MS/MS to quantitate the intact peptide remaining at select time points over 6 hours.

T2 sequence (Q16602 23-461): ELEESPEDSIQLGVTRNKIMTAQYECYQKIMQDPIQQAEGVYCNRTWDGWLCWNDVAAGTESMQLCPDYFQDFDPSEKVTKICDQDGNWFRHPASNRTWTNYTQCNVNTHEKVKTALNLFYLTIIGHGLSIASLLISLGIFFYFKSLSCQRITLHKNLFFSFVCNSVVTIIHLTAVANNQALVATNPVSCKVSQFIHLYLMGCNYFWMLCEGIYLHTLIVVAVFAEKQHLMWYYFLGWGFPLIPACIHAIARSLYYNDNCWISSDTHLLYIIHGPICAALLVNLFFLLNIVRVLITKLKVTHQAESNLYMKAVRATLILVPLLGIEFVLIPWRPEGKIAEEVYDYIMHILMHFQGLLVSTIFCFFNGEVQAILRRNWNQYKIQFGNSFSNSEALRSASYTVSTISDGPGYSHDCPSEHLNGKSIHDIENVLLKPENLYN
T2 sequence (O60894 27-148): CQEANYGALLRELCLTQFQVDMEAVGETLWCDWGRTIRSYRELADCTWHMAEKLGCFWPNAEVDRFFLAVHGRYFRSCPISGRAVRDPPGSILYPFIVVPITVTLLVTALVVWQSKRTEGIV
T1 sequence (Q63118 24-464): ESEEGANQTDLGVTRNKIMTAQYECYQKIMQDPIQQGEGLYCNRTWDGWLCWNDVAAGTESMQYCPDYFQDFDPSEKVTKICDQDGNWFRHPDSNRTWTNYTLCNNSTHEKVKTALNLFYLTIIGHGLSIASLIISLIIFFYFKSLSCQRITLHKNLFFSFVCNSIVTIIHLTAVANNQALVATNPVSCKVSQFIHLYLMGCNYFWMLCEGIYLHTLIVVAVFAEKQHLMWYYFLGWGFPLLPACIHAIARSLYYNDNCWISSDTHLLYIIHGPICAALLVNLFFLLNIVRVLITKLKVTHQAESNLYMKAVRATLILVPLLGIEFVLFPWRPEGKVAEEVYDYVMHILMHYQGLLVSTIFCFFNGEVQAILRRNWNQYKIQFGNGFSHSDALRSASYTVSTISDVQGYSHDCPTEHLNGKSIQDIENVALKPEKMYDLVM
T1 sequence (Q9JJ74 27-148): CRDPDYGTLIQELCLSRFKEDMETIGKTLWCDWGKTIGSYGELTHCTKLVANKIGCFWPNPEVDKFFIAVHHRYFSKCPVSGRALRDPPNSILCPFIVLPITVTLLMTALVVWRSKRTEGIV

With `CC(=O)N[C@@H](Cc1c[nH]c2ccccc12)C(=O)N[C@H](C(=O)N[C@H](C(=O)N[C@@H](Cc1cnc[nH]1)C(=O)N[C@@H](CCCNC(N)=O)C(=O)N[C@@H](CC(C)C)C(=O)N[C@@H](C)C(=O)NCC(=O)N[C@@H](CC(C)C)C(=O)N[C@@H](CC(C)C)C(=O)N[C@@H](CO)C(=O)N[C@@H](CCCNC(N)=O)C(=O)N[C@@H](CO)C(=O)NCC(=O)NCC(=O)N[C@H](C(=O)N[C@H](C(=O)N[C@@H](CCCCNC(=N)N)C(=O)N[C@@H](CCCCN)C(=O)N[C@@H](CC(N)=O)C(=O)N[C@@H](Cc1ccccc1)C(=O)N[C@H](C(=O)N1CCC[C@H]1C(=O)N[C@H](C(=O)N[C@@H](CC(=O)O)C(=O)N[C@H](C(=O)NCC(=O)N1CCC[C@H]1C(=O)N[C@@H](Cc1ccccc1)C(=O)N[C@@H](C)C(=O)N[C@@H](Cc1ccccc1)C(N)=O)C(C)C)[C@@H](C)O)C(C)C)C(C)C)C(C)C)[C@@H](C)O)C(C)C` [SEQ ID NO:739] the solubility in words [1] was “relatively insoluble”.

With `CC(=O)N[C@@H](Cc1c[nH]c2ccccc12)C(=O)N[C@H](C(=O)N[C@H](C(=O)N[C@@H](Cc1cnc[nH]1)C(=O)N[C@@H](CCCN=C(N)N)C(=O)N[C@@H](CC(C)C)C(=O)N[C@@H](C)C(=O)NCC(=O)N[C@@H](CC(C)C)C(=O)N[C@@H](CC(C)C)C(=O)N[C@@H](CO)C(=O)N[C@@H](CCCN=C(N)N)C(=O)N[C@@H](CO)C(=O)NCC(=O)NCC(=O)N[C@H](C(=O)N[C@H](C(=O)N[C@@H](CCCN=C(N)N)C(=O)N[C@@H](CCCCN)C(=O)N[C@@H](CC(N)=O)C(=O)N[C@@H](Cc1ccccc1)C(=O)N[C@H](C(=O)N1CCC[C@H]1C(=O)N[C@H](C(=O)N[C@@H](CC(=O)O)C(=O)N[C@H](C(=O)NCC(=O)N1CCC[C@H]1C(=O)N[C@@H](Cc1ccccc1)C(=O)N[C@@H](C)C(=O)N[C@@H](Cc1ccccc1)C(N)=O)C(C)C)[C@@H](C)O)C(C)C)C(C)C)C(C)C)[C@@H](C)O)C(C)C` [SEQ. ID NO: 7] the solubility in words [1] was “relatively soluble”.

With Ac-WVTHRLAGLLSRSGGVVRKNFVPTDVGPFAF-NH2 the cleaved bond [2] was “L16-S17, major; also recorded: S17-R18, major; also recorded: R18-S19, major”.

For `CC(=O)N[C@@H](Cc1c[nH]c2ccccc12)C(=O)N[C@H](C(=O)N[C@H](C(=O)N[C@@H](Cc1c[nH]cn1)C(=O)N[C@@H](CCCNC(=N)N)C(=O)N[C@@H](CC(C)C)C(=O)N[C@@H](C)C(=O)NCC(=O)N[C@@H](CC(C)C)C(=O)N[C@@H](CC(C)C)C(=O)N[C@@H](CO)C(=O)N[C@@H](CCCNC(=N)N)C(=O)N[C@@H](CO)C(=O)NCC(=O)NCC(=O)N[C@H](C(=O)N[C@H](C(=O)N[C@@H](CCCNC(=N)N)C(=O)N[C@@H](CCCCN)C(=O)N[C@@H](CC(N)=O)C(=O)N[C@@H](Cc1ccccc1)C(=O)N[C@H](C(=O)N1CCC[C@H]1C(=O)N[C@H](C(=O)N[C@@H](CC(=O)O)C(=O)N[C@H](C(=O)NCC(=O)N1CCC[C@H]1C(=O)N[C@@H](Cc1ccccc1)C(=O)N[C@@H](C)C(=O)N[C@@H](Cc1ccccc1)C(N)=O)C(C)C)[C@@H](C)O)C(C)C)C(C)C)C(C)C)[C@@H](C)O)C(C)C` [Compound 808], the “Efficacy observed (%) (at highest dose tested)” value (CGRP1 receptor [3]; 0.6 mg/kg) was 100%.

In the case of “SEQ ID NO:15 (Ac-WVTHRLAGLLSRSGGVVRK(PEG)NFVPTDVGPFAF-NH2; reading uncertain)”, the “improved potency relative to native CGRP(8-37) (SEQ ID NO:1)” value (CGRP1 receptor [4]) is reported as “about 12 fold”, the “loss in antagonist activity on PEGylation relative to the unconjugated parent peptide” value (CGRP1 receptor [4]) is reported as “three” and the “half-life longer than the non-PEGylated parent peptide” value [5] is reported as “more than 9 fold”.

With `CC(=O)N[C@@H](Cc1c[nH]c2ccccc12)C(=O)N[C@H](C(=O)N[C@H](C(=O)N[C@@H](Cc1c[nH]cn1)C(=O)N[C@@H](CCCNC(N)=O)C(=O)N[C@@H](CC(C)C)C(=O)N[C@@H](C)C(=O)NCC(=O)N[C@@H](CC(C)C)C(=O)N[C@@H](CC(C)C)C(=O)N[C@@H](CO)C(=O)N[C@@H](CCCNC(N)=O)C(=O)N[C@@H](CO)C(=O)NCC(=O)NCC(=O)N[C@H](C(=O)N[C@H](C(=O)N[C@@H](CCCCNC(=N)N)C(=O)N[C@@H](CCCCN)C(=O)N[C@@H](CC(N)=O)C(=O)N[C@@H](Cc1ccccc1)C(=O)N[C@H](C(=O)N1CCC[C@H]1C(=O)N[C@H](C(=O)N[C@@H](CC(=O)O)C(=O)N[C@H](C(=O)NCC(=O)N1CCC[C@H]1C(=O)N[C@@H](Cc1ccccc1)C(=O)N[C@@H](C)C(=O)N[C@@H](Cc1ccccc1)C(N)=O)C(C)C)[C@@H](C)O)C(C)C)C(C)C)C(C)C)[C@@H](C)O)C(C)C` [Compound 739] the “Efficacy observed (%) (at highest dose tested)” value (CGRP1 receptor [3]; 6 mg/kg) was 100%.

In the case of “Ac-WVTH[Cit]LAGLLS[Cit]SGGVV[hArg]KNFVPTDVG[Oic]FAF-NH2”, the fragment found (100% human plasma) is reported as “W7-hR24, major”, the fragment found [6] is reported as “W7-T9, 20 min during the infusion; also recorded: T30-A36, 20 min during the infusion; also recorded: W7-N26, 20 min during the infusion; also recorded: T30-F37, 20 min during the infusion; also recorded: W7-hR24, 20 min during the infusion” and the fragment found [7] is reported as “W7-K25, major”.

Molecule `CC(=O)N[C@@H](Cc1c[nH]c2ccccc12)C(=O)N[C@H](C(=O)N[C@H](C(=O)N[C@@H](Cc1cnc[nH]1)C(=O)N[C@@H](CCCN=C(N)N)C(=O)N[C@@H](CC(C)C)C(=O)N[C@@H](C)C(=O)NCC(=O)N[C@@H](CC(C)C)C(=O)N[C@@H](CC(C)C)C(=O)N[C@@H](CO)C(=O)N[C@@H](CCCN=C(N)N)C(=O)N[C@@H](CO)C(=O)NCC(=O)NCC(=O)N[C@H](C(=O)N[C@H](C(=O)N[C@@H](CCCN=C(N)N)C(=O)N[C@@H](CCCCN)C(=O)N[C@@H](CC(N)=O)C(=O)N[C@@H](Cc1ccccc1)C(=O)N[C@H](C(=O)N1CCC[C@H]1C(=O)N[C@H](C(=O)N[C@@H](CC(=O)O)C(=O)N[C@H](C(=O)NCC(=O)N1CCC[C@H]1C(=O)N[C@@H](Cc1ccccc1)C(=O)N[C@@H](C)C(=O)N[C@@H](Cc1ccccc1)C(N)=O)C(C)C)[C@@H](C)O)C(C)C)C(C)C)C(C)C)[C@@H](C)O)C(C)C` [SEQ ID NO: 7] has a recovery at 0 h, 2 mg/ml [8] of 112 ± 1.8%, a recovery at 4 h, 2 mg/ml [8] of 46.1 ± 60.1% and a recovery at 24 h, 2 mg/ml [8] of 2.51 ± 0.573%. The recovery at 48 h, 2 mg/ml [8] was 1.81 ± 0.754%, the “% Remaining” value ([9]; 0 h) was 100.0% and the remaining at 0.17 h, 100 ng/ml ([9]; 0.17 h) was 60.3%. The remaining at 0.5 h, 100 ng/ml ([9]; 0.5 h) was 13.8%, the remaining at 1 h, 100 ng/ml ([9]; 1 h) was 4.9% and the remaining at 2 h, 100 ng/ml ([9]; 2 h) was 0%. For the same molecule, the remaining at 3 h, 100 ng/ml ([9]; 3 h) was 0%, the remaining at 4 h, 100 ng/ml ([9]; 4 h) was 0% and the remaining at 5 h, 100 ng/ml ([9]; 5 h) was 0%. It also gave a remaining at 6 h, 100 ng/ml ([9]; 6 h) of 0%.
